According to patent EP1978972B1, “USE OF ALKYLGLUCOSIDE ESTERS AS BETA-DEFENSIN INDUCERS” (Pierre Fabre Dermo-Cosmétique, priority 2006, dated 2007):

Test system: hBD-2
Type: cell-based, human
Settings: skin explant, systemic
Source text: Il est connu de WO 97/45101 que les esters d'α-alkylglucoside peuvent être utilisés comme agent anti-microbien et/ou anti-fongique pour agir en tant que conservateur dans une composition, pour la préserver d'un développement microbien. D'autre part, les propriétés moussantes des esters de méthyl glucose sont décrites dans Desai et al (« Sofw Journal Seife, Oele, Fette, Wachse, Verlag für chemische Industrie » 1991). • Modèle cellulaire : lignée cellulaire HaCat, kératynocytes d'origine humaine, primoculture de kératinocytes humains • Modèle tissulaire : • Explants de peau normale provenant de déchet opératoire de chirurgie esthétique • Explants de gencive normale provenant de déchet opératoire de chirurgie implantatoire ou d'épithélium gingival reconstruit à partir de cellules épithéliales orales primaires • ➢ Les cellules HaCat sont ensemencées et cultivées en plaque 6 puits à 200 000 cellules/puits sous un volume de 2 ml de milieu de culture DMEM 1640 : (Ref: Invitrogen) complémenté par 10 % de sérum de veau foetal (SVF, Ref : CH30160.02 Perbio-Hyclone) pendant 18 h (sur la nuit). • ➢ A T0 les cellules sont lavées avec du tampon Phosphate (PBS, Ref: 52100-039 Invitrogen) puis privées en sérum pour les rendre quiescentes pendant 24 h (ralentissement de leur croissance et élimination de toute trace de facteurs susceptibles de perturber les effets induits par les traitements ultérieurs). • ➢ A T0+24 h les cellules sont traitées par des cytokines pro-inflammatoires (TNF-α à 10 ng/ml, IL1-β à 10 ng/ml) ou des éléments bactériens (LPS à 50 ng/ml, SEB à 100 ng/ml) ou des actifs potentiels de type « alkyle mono- ou di-ester d'α,β-butylglucoside » dilués dans du DMEM (1 ml/puits); La durée du traitement est de 3 h à 37°C. • ➢ Les kératinocytes primaires sont préparés à partir de peau normale provenant de déchet opératoire de chirurgie esthétique. Ils sont ensemencés et cultivés en plaque 24 puits à 60 000 cellules/puits sous un volume de 0,5 ml de milieu de culture KSFM (Ref : 37010 Invitrogen) complémenté par de l'EGF (Epidermal Growth Factor) à 1,5 ng/ml et du BPE (bovine pituitary extract) à 25 µg/ml pendant 24 h. • ➢ A J0, le milieu est remplacé par 0,5 ml de milieu KSFM complet, additionné de 1,2 nM de calcium. • ➢ A J+3, les cellules sont traitées par des cytokines pro-inflammatoires TNF-α et IL 1-β à 10 ng/ml ou des actifs potentiels de type « alkyle mono- ou di-ester d'α,β-butylglucoside » dilués dans 0,3 ml de milieu KSFM complet, en présence de 1,2 nM de calcium. […]

laurate de butylglucoside [αβ-LBG brut]
incubation time from which hBD-2 induction is effective: ≤ 1 h | synthèse des transcrits hBD-2 (30 µg/ml, in words): capable d'induire la synthèse des transcrits hBD-2
